Measured values published in patent US20030104507A1, “Method for detection of ATP” (priority 2001, published 2003).

Legend:
[1] = tested on: LucPpe2m146; test: Duration of luminescence (signal stability) and effects of media and sera, DTAB, ± pyrophosphate; type: biochemical, Photuris pennsylvanica; details: 10 μM sodium pyrophosphate
Method: In some embodiments, the compositions of the invention were added to intact cells to lyse them, and then ATP detected. In other embodiments, conditioned culture media were themselves assayed for ATP. However, the various components of media, such as buffers, sugars, amino acids, pH indicators, salts, etc., as well as the various factors found in serum (equine, bovine, etc.) may inhibit luciferase activity.
The luciferase-luciferin reaction was initiated by combining 100 μl of the reagent composition composition with 100 μl cell media with serum, varying final concentrations of DTAB (as indicated below in Table Q) and 1.0 μM ATP was added to each reaction plus or minus 10 μM sodium pyrophosphate in wells of a 96-well microtiter luminometer plate; each experimental condition was prepared in triplicate. At various times after initiating the reaction, rlu values were recorded using an Orion microplate luminometer (Berthold Detection Systems; Pforzheim, Germany).

[2] = tested on: ATPase activity endogenous to L929 cell lysate; test: Detergent inhibition of ATPase endogenous to L929 cell lysate (ATP remaining by luciferase luminescence, 22° C.); type: biochemical; design: key to Relative ATPase Activity, slope det/slope lysate: slope with detergent / slope without; ≥1.0 = 100% activity, 0.5 = 50%
Method: Three separate detergents in each of four detergent classes were tested: anionic [SDS (Sodium dodecyl sulfate), Bioterge (an α olefin sulfate), and sodium deoxycholate], nonionic [TRITON X-100, BigCHAP (N,N-bis(3-D-Gluconamidopropyl)cholamide) and THESIT (polyethylene glycol 400 dodecyl ether, Fluka, #88315)], cationic [BDDABr (Benzyldimethyldodecylammonium bromide), CTAB (Cetyltrimethylammonium bromide), and DTAB (dodecyltrimethylammonium bromide)] and zwitterionic [CHAPS (3[(3-Cholamidopropyl)dimethylammonio]propanesulfonic acid), CHAPSO (3-([3-Cholamidopropyl]dimethylammonio)-2-hydroxy-1-propanesulfonate), and Sulfobetaine 3-10 ([…]-N,N-dimethyl-3-ammonio-1-propanesulfonate)]. Detergents were obtained from Sigma, Fluka and Aldrich.
L929 cells (ATCC CCL-1; 1.5×10^5 cells/ml) in F12/DMEM (Hyclone, SH30023) containing 10% horse serum (Hyclone, SH30074) were frozen and thawed for four cycles to create a cell lysate. Then 50 μl of stock detergent solutions [10%, 5.0%, 1.0%, and 0.5% (w/v)] were separately added to 450 μl cell lysate, creating a final detergent concentration in the cell lysate sample of 1.0%, 0.5%, 0.1%, and 0.05%, respectively (these percentage values are those used in Tables D and E herein below). Control samples contained either lysate only or 1.0 μM ATP in 15 mM HEPES buffer (pH 7.5). All samples were incubated at 22° C. (room temperature) for the duration of the experiment.
At various timepoints, 20 μl from each sample/detergent mixture was added to a 96-well luminometer plate in triplicate, and then 100 μl of a solution (“luciferase-luciferin” or “L/L reagent”) containing 25 mM HEPES buffer (pH 7.5), 40 μg luciferase enzyme LucPpe2m146 (Promega, E140), 100 μM luciferin (Promega), and 10 mM MgSO4 was added to each well. The L/L reagent was stored at 4° C. for the duration of the experiment and then allowed to reach ambient temperature just before assaying. After mixing the contents of the plate, light output was measured with a Dynex MLX microtiter plate luminometer (Chantilly, Va.), 0.5 second reads per well with the first measurement taken five minutes after the detergent solution was combined with the sample. The average relative light units and the timepoint at which it was measured (rlu; Table D) and percent of remaining luciferase activity at the timepoint (Table E) are reported; controls were run with each set of experimental conditions as indicated. The cationic and anionic detergents were assayed on one day with one set of controls. The zwitterionic and nonionic detergents were assayed on a separate day with a separate set of controls. The DTAB at 0.5% was assayed on both days (1 and 2).
The experiment was performed as detailed in Example 1. The average relative light unit values and the percent of ATP remaining values are listed below in Table F and G respectively.
The log of the percent of ATP remaining after original timepoint values from Table E and Table G were plotted on the y axis against time (in minutes) on the x axis. The slope of the line generated by these values in the presence of detergent was divided by the slope of the line generated by the values in the absence of detergent (lysate control) resulting in the Relative ATPase Activity values listed below in Table H.
A relative activity value of 1.0 or greater indicates 100% cellular ATPase activity at the concentration of detergent tested. A relative activity value of 0.5 indicates a two-fold (or 50%) decrease in the level of cellular ATPase activity at the concentration of detergent tested when compared to the ATPase activity level in the absence of the detergent. A relative activity value of 0.2 indicates a five-fold (or 80%) decrease in the level of cellular ATPase activity at the concentration of detergent tested when compared to the ATPase activity level in the absence of the detergent.

## O=P([O-])([O-])OP(=O)([O-])[O-].[Na+].[Na+].[Na+].[Na+] [Ppi, sodium pyrophosphate]
[1]
  decrease of luminescence: ten-fold

## TRITON X-100
[2]; 0.05% detergent, 5 min
  Average Relative Light Unit Values: 6160.71 rlu
  Percent ATP Remaining: 100%
[2]; 0.05% detergent, 75 min
  Average Relative Light Unit Values: 1964.17 rlu
  Percent ATP Remaining: 31.9%
[2]; 0.05% detergent, 169 min
  Average Relative Light Unit Values: 822.48 rlu
  Percent ATP Remaining: 13.4%
[2]; 0.05% detergent, 222 min
  Average Relative Light Unit Values: 303.73 rlu
  Percent ATP Remaining: 4.9%
[2]; 0.05% detergent, 260 min
  Average Relative Light Unit Values: 147.48 rlu
  Percent ATP Remaining: 2.4%
[2]; 0.05 percent detergent
  Relative ATPase Activity, slope det/slope lysate: 1.228
  Slope (log percent ATP remaining vs time in minutes): −0.0065
[2]; 0.1% detergent, 5 min
  Average Relative Light Unit Values: 6837.20 rlu
  Percent ATP Remaining: 100%
[2]; 0.1% detergent, 75 min
  Average Relative Light Unit Values: 3004.57 rlu
  Percent ATP Remaining: 43.9%
[2]; 0.1% detergent, 169 min
  Average Relative Light Unit Values: 1643.05 rlu
  Percent ATP Remaining: 24.0%
[2]; 0.1% detergent, 222 min
  Average Relative Light Unit Values: 801.38 rlu
  Percent ATP Remaining: 11.7%
[2]; 0.1% detergent, 260 min
  Average Relative Light Unit Values: 448.93 rlu
  Percent ATP Remaining: 6.6%
[2]; 0.10 percent detergent
  Relative ATPase Activity, slope det/slope lysate: 0.889
  Slope (log percent ATP remaining vs time in minutes): −0.0047
[2]; 0.5% detergent, 5 min
  Average Relative Light Unit Values: 6106.61 rlu
  Percent ATP Remaining: 100%
[2]; 0.5% detergent, 75 min
  Average Relative Light Unit Values: 1880.98 rlu
  Percent ATP Remaining: 30.8%
[2]; 0.5% detergent, 169 min
  Average Relative Light Unit Values: 871.01 rlu
  Percent ATP Remaining: 14.3%
[2]; 0.5% detergent, 222 min
  Average Relative Light Unit Values: 378.58 rlu
  Percent ATP Remaining: 6.2%
[2]; 0.5% detergent, 260 min
  Average Relative Light Unit Values: 195.42 rlu
  Percent ATP Remaining: 3.2%
[2]; 0.50 percent detergent
  Relative ATPase Activity, slope det/slope lysate: 1.117
  Slope (log percent ATP remaining vs time in minutes): −0.0059
[2]; 1.0% detergent, 5 min
  Average Relative Light Unit Values: 6073.78 rlu
  Percent ATP Remaining: 100%
[2]; 1.0% detergent, 75 min
  Average Relative Light Unit Values: 1774.10 rlu
  Percent ATP Remaining: 29.2%
[2]; 1.0% detergent, 169 min
  Average Relative Light Unit Values: 839.14 rlu
  Percent ATP Remaining: 13.8%
[2]; 1.0% detergent, 222 min
  Average Relative Light Unit Values: 331.95 rlu
  Percent ATP Remaining: 5.5%
[2]; 1.0% detergent, 260 min
  Average Relative Light Unit Values: 174.89 rlu
  Percent ATP Remaining: 2.9%
[2]; 1.00 percent detergent
  Relative ATPase Activity, slope det/slope lysate: 1.152
  Slope (log percent ATP remaining vs time in minutes): −0.0061

## polyethylene glycol 400 dodecyl ether [THESIT]
[2]; 0.05% detergent, 5 min
  Average Relative Light Unit Values: 5632.96 rlu
  Percent ATP Remaining: 100%
[2]; 0.05% detergent, 75 min
  Average Relative Light Unit Values: 1601.09 rlu
  Percent ATP Remaining: 28.4%
[2]; 0.05% detergent, 169 min
  Average Relative Light Unit Values: 623.38 rlu
  Percent ATP Remaining: 11.1%
[2]; 0.05% detergent, 222 min
  Average Relative Light Unit Values: 211.67 rlu
  Percent ATP Remaining: 3.8%
[2]; 0.05% detergent, 260 min
  Average Relative Light Unit Values: 110.15 rlu
  Percent ATP Remaining: 2.0%
[2]; 0.05 percent detergent
  Relative ATPase Activity, slope det/slope lysate: 1.295
  Slope (log percent ATP remaining vs time in minutes): −0.0068
[2]; 0.1% detergent, 5 min
  Average Relative Light Unit Values: 6022.32 rlu
  Percent ATP Remaining: 100%
[2]; 0.1% detergent, 75 min
  Average Relative Light Unit Values: 2654.97 rlu
  Percent ATP Remaining: 44.1%
[2]; 0.1% detergent, 169 min
  Average Relative Light Unit Values: 1509.07 rlu
  Percent ATP Remaining: 25.1%
[2]; 0.1% detergent, 222 min
  Average Relative Light Unit Values: 755.94 rlu
  Percent ATP Remaining: 12.6%
[2]; 0.1% detergent, 260 min
  Average Relative Light Unit Values: 447.44 rlu
  Percent ATP Remaining: 7.4%
[2]; 0.10 percent detergent
  Relative ATPase Activity, slope det/slope lysate: 0.850
  Slope (log percent ATP remaining vs time in minutes): −0.0045
[2]; 0.5% detergent, 5 min
  Average Relative Light Unit Values: 6392.75 rlu
  Percent ATP Remaining: 100%
[2]; 0.5% detergent, 75 min
  Average Relative Light Unit Values: 2304.48 rlu
  Percent ATP Remaining: 36.0%
[2]; 0.5% detergent, 169 min
  Average Relative Light Unit Values: 1122.24 rlu
  Percent ATP Remaining: 17.6%
[2]; 0.5% detergent, 222 min
  Average Relative Light Unit Values: 487.28 rlu
  Percent ATP Remaining: 7.6%
[2]; 0.5% detergent, 260 min
  Average Relative Light Unit Values: 240.72 rlu
  Percent ATP Remaining: 3.8%
[2]; 0.50 percent detergent
  Relative ATPase Activity, slope det/slope lysate: 1.065
  Slope (log percent ATP remaining vs time in minutes): −0.0056
[2]; 1.0% detergent, 5 min
  Average Relative Light Unit Values: 6204.02 rlu
  Percent ATP Remaining: 100%
[2]; 1.0% detergent, 75 min
  Average Relative Light Unit Values: 1979.43 rlu
  Percent ATP Remaining: 31.9%
[2]; 1.0% detergent, 169 min
  Average Relative Light Unit Values: 968.14 rlu
  Percent ATP Remaining: 15.6%
[2]; 1.0% detergent, 222 min
  Average Relative Light Unit Values: 416.45 rlu
  Percent ATP Remaining: 6.7%
[2]; 1.0% detergent, 260 min
  Average Relative Light Unit Values: 210.78 rlu
  Percent ATP Remaining: 3.4%
[2]; 1.00 percent detergent
  Relative ATPase Activity, slope det/slope lysate: 1.096
  Slope (log percent ATP remaining vs time in minutes): −0.0058
